Here are results for nine molecules from ChEMBL document CHEMBL1147047, “Design of protein membrane interaction inhibitors by virtual ligand screening, proof of concept with the C2 domain of factor V” (Proc Natl Acad Sci U S A, 2007).

A word on the inhibition: it is the share of the control response that was lost under treatment. As usually defined, the IC50 is the concentration needed to halve the response being measured.

For test [1], the target named is T1, Coagulation factor V (Homo sapiens, UniProt P12259). Put plainly: Inhibition of factor 5a-mediated prothrombin activation in human plasma at 100 uM by prothrombinase assay.
T1 sequence (P12259 29-737 limits assumed): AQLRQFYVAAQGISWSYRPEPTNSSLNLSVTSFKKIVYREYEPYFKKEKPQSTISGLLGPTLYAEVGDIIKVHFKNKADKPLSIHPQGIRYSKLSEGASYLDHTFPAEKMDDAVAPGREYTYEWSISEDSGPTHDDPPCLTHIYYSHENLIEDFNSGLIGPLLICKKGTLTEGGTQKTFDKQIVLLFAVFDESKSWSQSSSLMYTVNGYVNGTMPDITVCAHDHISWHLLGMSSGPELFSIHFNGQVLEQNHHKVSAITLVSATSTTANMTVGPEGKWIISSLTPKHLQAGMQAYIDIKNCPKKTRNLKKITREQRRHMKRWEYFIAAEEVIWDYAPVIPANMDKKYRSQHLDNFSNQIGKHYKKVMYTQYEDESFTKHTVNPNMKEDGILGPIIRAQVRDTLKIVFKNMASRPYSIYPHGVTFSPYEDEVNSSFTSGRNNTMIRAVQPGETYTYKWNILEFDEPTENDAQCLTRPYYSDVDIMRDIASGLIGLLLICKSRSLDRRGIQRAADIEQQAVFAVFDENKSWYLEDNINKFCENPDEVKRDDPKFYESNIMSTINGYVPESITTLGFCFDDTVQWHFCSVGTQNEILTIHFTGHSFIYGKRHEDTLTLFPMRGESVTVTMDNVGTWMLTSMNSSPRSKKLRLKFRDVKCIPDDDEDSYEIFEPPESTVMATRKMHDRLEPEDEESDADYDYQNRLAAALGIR
T1 sequence (P12259 1574-2224 limits assumed): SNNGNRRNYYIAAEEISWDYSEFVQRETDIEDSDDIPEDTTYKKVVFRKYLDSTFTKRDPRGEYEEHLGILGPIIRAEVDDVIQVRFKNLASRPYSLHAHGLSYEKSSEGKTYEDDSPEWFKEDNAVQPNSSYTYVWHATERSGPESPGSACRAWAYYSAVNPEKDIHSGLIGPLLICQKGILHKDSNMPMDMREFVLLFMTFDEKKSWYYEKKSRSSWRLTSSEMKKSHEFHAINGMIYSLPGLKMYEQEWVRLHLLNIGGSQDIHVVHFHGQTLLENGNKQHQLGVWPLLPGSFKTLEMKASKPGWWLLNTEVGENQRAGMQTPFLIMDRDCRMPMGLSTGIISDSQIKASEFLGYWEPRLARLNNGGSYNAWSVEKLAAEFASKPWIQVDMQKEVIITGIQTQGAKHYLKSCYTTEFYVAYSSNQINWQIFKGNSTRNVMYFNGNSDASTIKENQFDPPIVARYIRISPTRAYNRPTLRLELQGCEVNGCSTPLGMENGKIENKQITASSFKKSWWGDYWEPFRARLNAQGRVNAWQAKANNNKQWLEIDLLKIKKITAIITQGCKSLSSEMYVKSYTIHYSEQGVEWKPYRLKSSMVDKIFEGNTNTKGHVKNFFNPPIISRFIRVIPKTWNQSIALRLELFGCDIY
The target of test [2] is Coagulation factor X (Homo sapiens) (UniProt P00742). Put plainly: Inhibition of factor 10a in human plasma. In kind it is cell-free.
Sequence of Coagulation factor X (Homo sapiens) (P00742 41-179 limits assumed): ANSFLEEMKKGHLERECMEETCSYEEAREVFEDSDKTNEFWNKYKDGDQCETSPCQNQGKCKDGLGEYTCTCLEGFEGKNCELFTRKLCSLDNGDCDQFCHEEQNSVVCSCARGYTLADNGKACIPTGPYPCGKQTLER
Sequence of Coagulation factor X (Homo sapiens) (P00742 235-488 limits assumed): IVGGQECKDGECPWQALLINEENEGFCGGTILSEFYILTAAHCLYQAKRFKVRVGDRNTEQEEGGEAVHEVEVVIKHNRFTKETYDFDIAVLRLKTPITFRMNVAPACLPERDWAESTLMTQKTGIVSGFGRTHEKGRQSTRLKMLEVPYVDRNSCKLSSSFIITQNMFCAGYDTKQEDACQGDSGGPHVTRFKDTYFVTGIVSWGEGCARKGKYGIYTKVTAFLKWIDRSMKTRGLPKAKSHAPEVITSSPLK
The target in test [3] is T1, Coagulation factor V. The test is described as follows: Inhibition of human factor 5a light chain binding to immobilized phospholipid by surface plasmon resonance assay. On the technique in general: In SPR one partner is held on a chip, and binding of the other changes the refractive index at the surface.
In test [4] the target is T1, Coagulation factor V. Put plainly: Inhibition of factor 5a-mediated prothrombin activation in human plasma by prothrombinase assay. Type of test: cell-free.
In test [5] the target is T1, Coagulation factor V. The test is described as follows: Inhibition of human recombinant factor 5a C2 domain binding to immobilized phospholipid by surface plasmon resonance assay.
Test [6] has as its target Prothrombin (Homo sapiens) (UniProt P00734). Put plainly: Inhibition of calcium-dependent membrane binding activity of prothrombin.
The target in test [7] is Coagulation factor X (Homo sapiens) (UniProt P00742). The test is described as follows: Inhibition of calcium-dependent membrane binding activity of factor 10a.
The target in test [8] is Coagulation factor VIII (Homo sapiens, UniProt P00451). Put plainly: Inhibition of human factor 8 binding to immobilized phospholipid by surface plasmon resonance assay.
Sequence of Coagulation factor VIII (P00451 20-759 limits assumed): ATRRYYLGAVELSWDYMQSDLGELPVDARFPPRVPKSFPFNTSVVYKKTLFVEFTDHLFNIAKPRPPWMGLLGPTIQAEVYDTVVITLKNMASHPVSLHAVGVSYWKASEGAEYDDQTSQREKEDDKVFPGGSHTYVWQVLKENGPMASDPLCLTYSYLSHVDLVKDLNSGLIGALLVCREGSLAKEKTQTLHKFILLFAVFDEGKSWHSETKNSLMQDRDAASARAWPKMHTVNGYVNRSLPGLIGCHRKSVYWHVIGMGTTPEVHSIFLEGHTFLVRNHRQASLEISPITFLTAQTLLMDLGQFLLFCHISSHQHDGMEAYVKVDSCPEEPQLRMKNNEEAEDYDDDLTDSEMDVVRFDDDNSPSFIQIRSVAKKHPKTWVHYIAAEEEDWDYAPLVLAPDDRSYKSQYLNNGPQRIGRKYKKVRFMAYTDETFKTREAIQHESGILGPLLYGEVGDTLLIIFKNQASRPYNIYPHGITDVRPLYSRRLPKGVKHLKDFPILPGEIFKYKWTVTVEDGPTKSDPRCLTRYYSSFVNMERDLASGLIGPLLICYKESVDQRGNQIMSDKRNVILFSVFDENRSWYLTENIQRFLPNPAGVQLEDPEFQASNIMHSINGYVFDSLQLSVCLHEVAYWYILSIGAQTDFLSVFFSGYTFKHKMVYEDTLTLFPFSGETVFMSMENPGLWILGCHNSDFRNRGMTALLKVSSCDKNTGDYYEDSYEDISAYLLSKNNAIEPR
Sequence of Coagulation factor VIII (P00451 1668-2351 limits assumed): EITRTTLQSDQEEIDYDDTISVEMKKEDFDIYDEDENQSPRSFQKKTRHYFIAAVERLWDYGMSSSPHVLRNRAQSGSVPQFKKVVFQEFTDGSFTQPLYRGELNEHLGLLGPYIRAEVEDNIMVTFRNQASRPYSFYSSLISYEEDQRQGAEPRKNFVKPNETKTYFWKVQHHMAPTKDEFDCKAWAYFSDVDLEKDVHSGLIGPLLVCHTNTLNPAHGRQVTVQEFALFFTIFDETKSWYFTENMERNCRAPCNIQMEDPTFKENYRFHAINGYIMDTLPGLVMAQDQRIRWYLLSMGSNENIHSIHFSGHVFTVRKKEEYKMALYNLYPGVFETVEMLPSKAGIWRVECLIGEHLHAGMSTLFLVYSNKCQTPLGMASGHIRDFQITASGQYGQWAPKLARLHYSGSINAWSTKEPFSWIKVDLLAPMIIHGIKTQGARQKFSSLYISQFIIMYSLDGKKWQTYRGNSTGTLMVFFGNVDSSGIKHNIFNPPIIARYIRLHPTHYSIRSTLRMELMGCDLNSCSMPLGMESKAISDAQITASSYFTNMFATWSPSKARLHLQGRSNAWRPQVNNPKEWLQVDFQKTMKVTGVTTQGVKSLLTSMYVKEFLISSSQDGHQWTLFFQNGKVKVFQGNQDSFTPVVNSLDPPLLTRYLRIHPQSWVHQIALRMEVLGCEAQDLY
Test [9] deals with T1, Coagulation factor V. The test is described as follows: Inhibition of factor 5a-mediated prothrombin activation in human plasma at 50 uM in presence of 40 mg/ml albumin. In kind it is cell-free. Also on record: scale not given: the % may be the effect or the level left.

Each structure is given as a SMILES string. Active and inactive are the calls of the source. No cut-off for these calls is given here.

Consider `O=C(COc1ccc(Cl)cc1Cl)Nc1ccc(C(=O)Nc2ccccc2C(=O)O)cc1`, for which the inhibition in test [1] was above 99%. Also, the outcome in [2], in test [6] and in test [7] was inactive. In addition, the results for the IC50 in test [3], in [4] and in [5] were 14.1 µM, 40.6 µM and 16.4 µM, respectively.
`CC1=NN(c2cccc(C(=O)O)c2)C(=O)/C1=C\c1ccc(-c2ccc([N+](=O)[O-])cc2)o1` gave an inhibition in [1] above 99%. The outcome in [2], in test [6] and in [7] was inactive. Also, the concentration for half-maximal inhibition (IC50) amounted to 8.56 µM in test [3], 9.19 µM in test [4] and 6.71 µM in test [5].
In turn, `COc1cc([N+](=O)[O-])ccc1-c1ccc(/C=C2\C(=O)NC(=O)N(c3ccc4c(c3)OCO4)C2=O)o1` had an inhibition in [1] above 99%. The outcome in test [2], in test [6] and in test [7] was inactive. Besides, the IC50 was found to be 4.8 µM in [3], 62.9 µM in test [4] and 5.53 µM in [5].
For `N=c1n(CCN2CCCCC2)c2ccccc2n1CC(O)COc1ccc(Cl)cc1Cl` (single isomer, unassigned), the inhibition in test [1] is above 99%. The outcome in test [2] and in [6] was inactive. Moreover, the IC50 in test [3] came to 15.7 µM; in test [4], 32.4 µM; in test [5] it was 14 µM; in [8], 7.8 µM.
`O=C1NC(=O)N(c2ccccc2F)C(=O)/C1=C\c1cc(Cl)ccc1OCc1ccc([N+](=O)[O-])cc1` came in with an inhibition in [1] above 99%. Further, the result in test [2] and in [6] was inactive. Moreover, the IC50 in test [3] worked out at 14.1 µM; in test [4], 38 µM; in [5], 21.9 µM; in test [8], 8.9 µM.
In turn, `CC(C)NC[C@@H](O)Cn1c2c(c3ccccc31)CCc1c-2cnn1-c1ccccc1` returned an inhibition in test [1] above 99%. In addition, the result in [2] and in [7] was inactive. The molecule also returned an IC50 in [4] of 3.8 µM.
Turning to `CC1=NN(c2ccc(Br)cc2)C(=O)/C1=C/c1ccc(-c2cccc(C(=O)O)c2)o1`, the inhibition in test [1] was above 99%. The result in [2] and in test [7] was inactive. This molecule displayed an IC50 in test [4] of 1.81 µM.
In turn, `CCOc1cc(/C=C2/NC(=O)N(Cc3ccccc3F)C2=O)ccc1OCc1ccc(C(=O)O)cc1` came in with an inhibition in test [1] above 99%. Moreover, the result in test [2], in test [6] and in test [7] was inactive. The IC50 in test [3] came to 2.5 µM; in [4], 18.6 µM; in test [5], 3.51 µM. Also, in test [9], the Activity is 25%.
In test [1], `Cc1cc(-c2ccc(/C=C3/C(=O)NN(c4cccc(Cl)c4)C3=O)o2)c([N+](=O)[O-])cc1C` returned an inhibition above 99%. Besides, the outcome in [2], in [6] and in test [7] was inactive. Besides, the IC50 in [3] was determined as 8.55 µM; in test [4] it was 8.95 µM; in [5], 7.4 µM.
